Assays:
Type in all cases: in vivo
[1] = test system: cocklebur (Xanthium strumarium); assay: Preemergence herbicidal activity, cocklebur; details: soil spray, visual after 3 weeks, 0 no injury, 100 complete kill or no germination
How it was run: (§1)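 First, pots were seeded. Next, the soil was sprayed with compound solutions in water/Tween 155 (0.1%) containing acetone/DMSO, up to 4.48 kg/ha. Then pots were held in a greenhouse with roughly 15 h days at 23-29 °C and nights at 22-28 °C. Finally, injury was scored visually after 3 weeks.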

[2] = test system: pigweed (Amaranthus retroflexus); assay: Postemergence herbicidal activity, pigweed; details: foliar spray, visual after 2 weeks, 0 no injury, 100 complete kill
How it was run: (§2)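 Greenhouse-grown plants at first or second true leaf stage were sprayed with compound in aqueous acetone/DMSO/isopropanol carrier containing crop oil concentrate and Triton X-155; 1 ppm corresponds to about 1 g/ha. Plants were sub-irrigated, and visual injury versus untreated plants was scored 0–100% after 2 weeks.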

viola (Viola tricolor) = assay: Postemergence herbicidal activity, viola; details: foliar spray, visual after 2 weeks, 0 no injury, 100 complete kill
How it was run: as §2

[3] = test system: blackgrass (Alopecurus myosuroides); assay: Preemergence herbicidal activity, blackgrass; details: soil spray, visual after 3 weeks, 0 no injury, 100 complete kill or no germination
How it was run: as §1

[4] = test system: velvetleaf (Abutilion theophrasti); assay: Preemergence herbicidal activity, velvetleaf; details: soil spray, visual after 3 weeks, 0 no injury, 100 complete kill or no germination
How it was run: as §1

[5] = test system: morningglory (Ipomoea hederacea); assay: Preemergence herbicidal activity, morningglory; details: soil spray, visual after 3 weeks, 0 no injury, 100 complete kill or no germination
How it was run: as §1

[6] = test system: wild poinsettia (Euphorbia heterophylla); assay: Preemergence herbicidal activity, wild poinsettia; details: soil spray, visual after 3 weeks, 0 no injury, 100 complete kill or no germination
How it was run: as §1

[7] = test system: Rox orange sorghum (Sorghum bicolor); assay: Preemergence herbicidal activity, Rox orange sorghum; details: soil spray, visual after 3 weeks, 0 no injury, 100 complete kill or no germination
How it was run: as §1

[8] = test system: crabgrass (Digitaria sanguinalis); assay: Preemergence herbicidal activity, crabgrass; details: soil spray, visual after 3 weeks, 0 no injury, 100 complete kill or no germination
How it was run: as §1

[9] = test system: lambsquarters (Chenopodium album); assay: Preemergence herbicidal activity, lambsquarters; details: soil spray, visual after 3 weeks, 0 no injury, 100 complete kill or no germination
How it was run: as §1

[10] = test system: chickweed (Stellaria media); assay: Postemergence herbicidal activity, chickweed; details: foliar spray, visual after 2 weeks, 0 no injury, 100 complete kill
How it was run: as §2

[11] = test system: pigweed (Amaranthus retroflexus); assay: Preemergence herbicidal activity, pigweed; details: soil spray, visual after 3 weeks, 0 no injury, 100 complete kill or no germination
How it was run: as §1

[12] = test system: cocklebur (Xanthium strumarium); assay: Postemergence herbicidal activity, cocklebur; details: foliar spray, visual after 2 weeks, 0 no injury, 100 complete kill
How it was run: as §2

[13] = test system: barnyardgrass (Echinochloa crus-galli); assay: Preemergence herbicidal activity, barnyardgrass; details: soil spray, visual after 3 weeks, 0 no injury, 100 complete kill or no germination
How it was run: as §1

[14] = test system: wild buckwheat (Polygonum convolvulus); assay: Postemergence herbicidal activity, wild buckwheat; details: foliar spray, visual after 2 weeks, 0 no injury, 100 complete kill
How it was run: as §2

[15] = test system: giant foxtail (Setaria faberi); assay: Postemergence herbicidal activity, giant foxtail; details: foliar spray, visual after 2 weeks, 0 no injury, 100 complete kill
How it was run: as §2

[16] = test system: blackgrass (Alopecurus myosuroides); assay: Postemergence herbicidal activity, blackgrass; details: foliar spray, visual after 2 weeks, 0 no injury, 100 complete kill
How it was run: as §2

[17] = test system: velvetleaf (Abutilion theophrasti); assay: Postemergence herbicidal activity, velvetleaf; details: foliar spray, visual after 2 weeks, 0 no injury, 100 complete kill
How it was run: as §2

[18] = test system: morningglory (Ipomoea hederacea); assay: Postemergence herbicidal activity, morningglory; details: foliar spray, visual after 2 weeks, 0 no injury, 100 complete kill
How it was run: as §2

[19] = test system: lambsquarters (Chenopodium album); assay: Postemergence herbicidal activity, lambsquarters; details: foliar spray, visual after 2 weeks, 0 no injury, 100 complete kill
How it was run: as §2

[20] = test system: Rox orange sorghum (Sorghum bicolor); assay: Postemergence herbicidal activity, Rox orange sorghum; details: foliar spray, visual after 2 weeks, 0 no injury, 100 complete kill
How it was run: as §2

[21] = test system: giant foxtail (Setaria faberi); assay: Preemergence herbicidal activity, giant foxtail; details: soil spray, visual after 3 weeks, 0 no injury, 100 complete kill or no germination
How it was run: as §1

wild oats (Avena fatua) [22] = assay: Postemergence herbicidal activity, wild oats; details: foliar spray, visual after 2 weeks, 0 no injury, 100 complete kill
How it was run: as §2

wild oats (Avena fatua) [23] = assay: Preemergence herbicidal activity, wild oats; details: soil spray, visual after 3 weeks, 0 no injury, 100 complete kill or no germination
How it was run: as §1

COc1csc(Cl)c1S(=O)(=O)Nc1nc2c(C)cnc(OC)n2n1 [Compound 21]
75%: AVEFA postemergence injury score 0-100 (wild oats (Avena fatua) [22]; 62.5 ppm)
40%: IPOHE preemergence injury score 0-100 ([5]; 8.8 g/Ha) | DIGSA preemergence injury score 0-100 ([8]; 8.8 g/Ha)
30%: ECHCG preemergence injury score 0-100 ([13]; 8.8 g/Ha) | ALOMY postemergence injury score 0-100 ([16]; 62.5 ppm)
80%: ABUTH preemergence injury score 0-100 ([4]; 8.8 g/Ha) | IPOHE postemergence injury score 0-100 ([18]; 62.5 ppm)
90%: VIOTR postemergence injury score 0-100 (viola (Viola tricolor); 62.5 ppm) | XANST postemergence injury score 0-100 ([12]; 62.5 ppm)
70%: ALOMY preemergence injury score 0-100 ([3]; 8.8 g/Ha) | SORBI preemergence injury score 0-100 ([7]; 8.8 g/Ha) | CHEAL preemergence injury score 0-100 ([9]; 8.8 g/Ha) | SETFA preemergence injury score 0-100 ([21]; 8.8 g/Ha) | AVEFA preemergence injury score 0-100 (wild oats (Avena fatua) [23]; 8.8 g/Ha)
50%: XANST preemergence injury score 0-100 ([1]; 8.8 g/Ha) | SETFA postemergence injury score 0-100 ([15]; 62.5 ppm)
60%: EPHHL preemergence injury score 0-100 ([6]; 8.8 g/Ha) | AMARE preemergence injury score 0-100 ([11]; 8.8 g/Ha)
100%: AMARE postemergence injury score 0-100 ([2]; 62.5 ppm) | STEME postemergence injury score 0-100 ([10]; 62.5 ppm) | POLCO postemergence injury score 0-100 ([14]; 62.5 ppm) | ABUTH postemergence injury score 0-100 ([17]; 62.5 ppm) | CHEAL postemergence injury score 0-100 ([19]; 62.5 ppm) | SORBI postemergence injury score 0-100 ([20]; 62.5 ppm)

COc1csc(C)c1S(=O)(=O)Nc1nc2c(Cl)cnc(OC)n2n1 [Compound 22]
70%: ALOMY preemergence injury score 0-100 ([3]; 35 g/Ha) | ABUTH postemergence injury score 0-100 ([17]; 31.3 ppm) | AVEFA preemergence injury score 0-100 (wild oats (Avena fatua) [23]; 35 g/Ha)
98%: IPOHE preemergence injury score 0-100 ([5]; 35 g/Ha) | DIGSA preemergence injury score 0-100 ([8]; 35 g/Ha) | CHEAL preemergence injury score 0-100 ([9]; 35 g/Ha)
95%: SORBI postemergence injury score 0-100 ([20]; 31.3 ppm)
100%: AMARE postemergence injury score 0-100 ([2]; 31.3 ppm) | ABUTH preemergence injury score 0-100 ([4]; 35 g/Ha) | SORBI preemergence injury score 0-100 ([7]; 35 g/Ha) | AMARE preemergence injury score 0-100 ([11]; 35 g/Ha) | ECHCG preemergence injury score 0-100 ([13]; 35 g/Ha) | SETFA preemergence injury score 0-100 ([21]; 35 g/Ha)
90%: XANST postemergence injury score 0-100 ([12]; 31.3 ppm) | POLCO postemergence injury score 0-100 ([14]; 31.3 ppm) | IPOHE postemergence injury score 0-100 ([18]; 31.3 ppm) | CHEAL postemergence injury score 0-100 ([19]; 31.3 ppm)
60%: ALOMY postemergence injury score 0-100 ([16]; 31.3 ppm)
50%: AVEFA postemergence injury score 0-100 (wild oats (Avena fatua) [22]; 31.3 ppm)
80%: XANST preemergence injury score 0-100 ([1]; 35 g/Ha) | VIOTR postemergence injury score 0-100 (viola (Viola tricolor); 31.3 ppm) | EPHHL preemergence injury score 0-100 ([6]; 35 g/Ha) | STEME postemergence injury score 0-100 ([10]; 31.3 ppm) | SETFA postemergence injury score 0-100 ([15]; 31.3 ppm)

COc1csc(C)c1S(=O)(=O)Nc1nc2c(OC)cnc(OC)n2n1 [Compound 23]
98%: ALOMY preemergence injury score 0-100 ([3]; 4.4 g/Ha) | SETFA preemergence injury score 0-100 ([21]; 4.4 g/Ha)
40%: IPOHE postemergence injury score 0-100 ([18]; 15.6 ppm)
70%: XANST preemergence injury score 0-100 ([1]; 4.4 g/Ha) | VIOTR postemergence injury score 0-100 (viola (Viola tricolor); 15.6 ppm) | ALOMY postemergence injury score 0-100 ([16]; 15.6 ppm) | AVEFA postemergence injury score 0-100 (wild oats (Avena fatua) [22]; 15.6 ppm)
80%: IPOHE preemergence injury score 0-100 ([5]; 4.4 g/Ha) | STEME postemergence injury score 0-100 ([10]; 15.6 ppm) | ECHCG preemergence injury score 0-100 ([13]; 4.4 g/Ha) | CHEAL postemergence injury score 0-100 ([19]; 15.6 ppm)
100%: SORBI preemergence injury score 0-100 ([7]; 4.4 g/Ha) | DIGSA preemergence injury score 0-100 ([8]; 4.4 g/Ha) | AMARE preemergence injury score 0-100 ([11]; 4.4 g/Ha)
75%: POLCO postemergence injury score 0-100 ([14]; 15.6 ppm)
90%: AMARE postemergence injury score 0-100 ([2]; 15.6 ppm) | ABUTH preemergence injury score 0-100 ([4]; 4.4 g/Ha) | EPHHL preemergence injury score 0-100 ([6]; 4.4 g/Ha) | CHEAL preemergence injury score 0-100 ([9]; 4.4 g/Ha) | XANST postemergence injury score 0-100 ([12]; 15.6 ppm) | SETFA postemergence injury score 0-100 ([15]; 15.6 ppm) | ABUTH postemergence injury score 0-100 ([17]; 15.6 ppm) | SORBI postemergence injury score 0-100 ([20]; 15.6 ppm) | AVEFA preemergence injury score 0-100 (wild oats (Avena fatua) [23]; 4.4 g/Ha)

COc1cc(OC)n2nc(NS(=O)(=O)c3c(OC)csc3C)nc2n1 [Compound 24]
40%: ECHCG preemergence injury score 0-100 ([13]; 8.8 g/Ha)
90%: ALOMY preemergence injury score 0-100 ([3]; 8.8 g/Ha) | AMARE preemergence injury score 0-100 ([11]; 8.8 g/Ha) | XANST postemergence injury score 0-100 ([12]; 7.8 ppm) | SETFA postemergence injury score 0-100 ([15]; 7.8 ppm)
80%: EPHHL preemergence injury score 0-100 ([6]; 8.8 g/Ha) | STEME postemergence injury score 0-100 ([10]; 7.8 ppm) | ALOMY postemergence injury score 0-100 ([16]; 7.8 ppm) | IPOHE postemergence injury score 0-100 ([18]; 7.8 ppm)
98%: ABUTH preemergence injury score 0-100 ([4]; 8.8 g/Ha) | IPOHE preemergence injury score 0-100 ([5]; 8.8 g/Ha) | DIGSA preemergence injury score 0-100 ([8]; 8.8 g/Ha)
70%: XANST preemergence injury score 0-100 ([1]; 8.8 g/Ha) | VIOTR postemergence injury score 0-100 (viola (Viola tricolor); 7.8 ppm) | POLCO postemergence injury score 0-100 ([14]; 7.8 ppm) | ABUTH postemergence injury score 0-100 ([17]; 7.8 ppm) | AVEFA postemergence injury score 0-100 (wild oats (Avena fatua) [22]; 7.8 ppm) | AVEFA preemergence injury score 0-100 (wild oats (Avena fatua) [23]; 8.8 g/Ha)
85%: CHEAL postemergence injury score 0-100 ([19]; 7.8 ppm)
100%: AMARE postemergence injury score 0-100 ([2]; 7.8 ppm) | SORBI preemergence injury score 0-100 ([7]; 8.8 g/Ha) | CHEAL preemergence injury score 0-100 ([9]; 8.8 g/Ha) | SORBI postemergence injury score 0-100 ([20]; 7.8 ppm) | SETFA preemergence injury score 0-100 ([21]; 8.8 g/Ha)

From patent US6645918B1, “N-([1,2,4]triazoloazinyl)thiophenesulfonamide compounds and their use as herbicides” (Dow AgroSciences LLC, priority 2000, dated 2003)
